Test results from patent US20110046066A1, “INHIBITORS OF IAP” (GENENTECH, INC., priority 2008, published 2011).
Where “and” joins values, the source holds several entries; their conditions need not be identical. Identical values can stand only once.

Experiments:
C-IAP1 BIR3 = biological target: T1, C-IAP1 BIR3 (Homo sapiens, UniProt Q13490); test: Fluorescence polarization peptide binding assay, C-IAP1 BIR3; conditions: for IC50: 0.2 μM C-IAP1 BIR3, 5 nM AVP-diPhe-FAM probe, one hour incubation; for Ki: determined from the IC50 values (procedure of Keating et al.)
T1 construct: 0.2 μM C-IAP1 BIR3
Experimental: (§1) Polarization experiments were performed on an Analyst HT 96-384 reader (Molecular Devices Corp.) in order to determine dissociation constants (Kd) between IAP protein BIR domains and the fluorescent probe. Samples for fluorescence polarization affinity experiments were prepared by addition of serial dilutions of IAP BIR domains (C-IAP1 BIR3, C-IAP-2 BIR3, ML/X-IAP chimera MLXBIR3SG and X-IAP BIR3) in polarization buffer (50 mM Tris [pH 7.2], 120 mM NaCl, 1% bovine globulins 5 mM DTT and 0.05% octylglucoside) to 5-carboxyflourescein-conjugated AVPdi-Phe-NH2 (AVP-diPhe-FAM) at 5 nM final concentration.
(§2) The reactions were read after an incubation time of 1 hour at room temperature with standard cut-off filters for the fluorescein fluorophore (λex=485 nm; λem=530 nm) in 384-well black plates (Molecular Devices Corp.). Fluorescence polarization values were plotted as a function of the protein concentration, and the effective concentration 50 (EC50) values were obtained by fitting the data to a 4-parameter equation using Kaleidagraph software (Synergy software, Reading, Pa.). The apparent Kd values were determined from the EC50 values. Inhibition Constants (Ki values) for the antagonists were determined by the addition of 0.06 μM MLXBIR3SG, 0.5 μM X-IAP BIR3, 0.2 μM C-IAP1 BIR3 or 0.4 μM C-IAP-2 BIR3 to wells containing 5 nM of the AVP-diPhe-FAM probe as well as 1:3 serial dilutions of antagonist compounds starting at a concentration of 200 μM in the polarization buffer. Samples were read after an incubation time of one hour. Fluorescence polarization values were plotted as a function of the antagonist concentration, and the IC50 values were obtained by fitting the data to a 4-parameter equation using Kaleidagraph software (Synergy software, Reading, Pa.). Ki values for the antagonists were determined from the IC50 values according to the procedure of Keating, S. M., Marsters, J, Beresini, M., Ladner, C., Zioncheck, K., Clark, K., Arellano, F., and Bodary, S. (2000) in Proceedings of SPIE: In Vitro Diagnostic Instrumentation (Cohn, G. E., Ed.) pp 128-137, Bellingham, Wash. […] All values are micromolar.

C-IAP2 BIR3 = biological target: T2, C-IAP2 BIR3 (Homo sapiens, UniProt Q13489); test: Fluorescence polarization peptide binding assay, C-IAP2 BIR3; conditions: for IC50: 0.4 μM C-IAP-2 BIR3, 5 nM AVP-diPhe-FAM probe, one hour incubation; for Ki: determined from the IC50 values (procedure of Keating et al.)
T2 construct: 0.4 μM C-IAP-2 BIR3
Experimental: as §1, §2

[1] = biological target: T3, ML/X-IAP chimera MLXBIR3SG (Homo sapiens, UniProt Q96CA5, S150G); test: Fluorescence polarization peptide binding assay, MLXBIR3SG; conditions: for IC50: 0.06 μM MLXBIR3SG, 5 nM AVP-diPhe-FAM probe, one hour incubation; for Ki: determined from the IC50 values (procedure of Keating et al.)
T3 sequence (Q96CA5 with tags, fused parts or gaps S150G): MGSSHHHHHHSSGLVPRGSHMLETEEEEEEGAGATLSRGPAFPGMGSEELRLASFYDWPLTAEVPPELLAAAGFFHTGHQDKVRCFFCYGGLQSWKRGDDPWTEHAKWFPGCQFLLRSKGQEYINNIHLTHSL
Experimental: The following fluorescence polarization experiments used a chimeric BIR domain referred to as MLXBIR3SG in which 11 of 110 residues correspond to those found in XIAP BIR3, while the remainder correspond to ML-IAP BIR. […] The improved caspase-9 inhibition of the chimeric BIR domain MLXBIR3SG has been correlated with increased inhibition of doxorubicin-induced apoptosis when transfected into MCF7 cells.
as §1, §2

X-IAP BIR3 = biological target: T4, X-IAP BIR3 (Homo sapiens, UniProt P98170); test: Fluorescence polarization peptide binding assay, X-IAP BIR3; conditions: for IC50: 0.5 μM X-IAP BIR3, 5 nM AVP-diPhe-FAM probe, one hour incubation; for Ki: determined from the IC50 values (procedure of Keating et al.)
T4 construct: 0.5 μM X-IAP BIR3
Experimental: as §1, §2

T2 sequence (Q13489 238-349 limits assumed): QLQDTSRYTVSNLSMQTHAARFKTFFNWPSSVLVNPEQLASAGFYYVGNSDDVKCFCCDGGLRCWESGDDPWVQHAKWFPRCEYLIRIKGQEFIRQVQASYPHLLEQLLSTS
T4 sequence (P98170 241-356 limits assumed): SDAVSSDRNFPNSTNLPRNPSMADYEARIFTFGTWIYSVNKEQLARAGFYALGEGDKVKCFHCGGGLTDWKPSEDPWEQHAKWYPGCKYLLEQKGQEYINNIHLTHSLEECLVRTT
T1 sequence (Q13490 253-363 limits assumed): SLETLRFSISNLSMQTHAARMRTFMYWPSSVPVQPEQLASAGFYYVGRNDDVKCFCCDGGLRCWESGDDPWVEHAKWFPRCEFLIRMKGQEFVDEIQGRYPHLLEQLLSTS

With `CN[C@@H](C)C(=O)N[C@H](C(=O)N[C@H](C(=O)NCC(c1ccccc1)c1ccccc1)C(F)(F)F)C1CCCCC1` [Compound 8] the IC50 (C-IAP1 BIR3) was 3.12 µM, the Ki (C-IAP1 BIR3) was 0.483 µM and the IC50 (C-IAP2 BIR3) was 1.94 µM. It also gave a Ki (C-IAP2 BIR3) of 0.419 µM, an IC50 [1] of 0.899 µM and a Ki [1] of 0.205 µM. It also gave an IC50 (X-IAP BIR3) of over 200 µM and a Ki (X-IAP BIR3) of over 35 µM.
`CN[C@H](C)C(=O)N[C@@H](C(=O)N[C@@H](C(=O)NCC(c1ccccc1)c1ccccc1)C(C)(C)C)C1CCCCC1` [Compound 15] was tested, and the IC50 (C-IAP1 BIR3) was 3.64 µM, the Ki (C-IAP1 BIR3) was 0.564 µM and the IC50 (C-IAP2 BIR3) was 7.57 µM. The Ki (C-IAP2 BIR3) was 1.63 µM, the IC50 [1] was 2.9 µM and the Ki [1] was 0.661 µM. The IC50 (X-IAP BIR3) was over 200 µM and the Ki (X-IAP BIR3) was over 35 µM.
In the case of `CN[C@@H](C)C(=O)N[C@H](C(=O)N(C)[C@H](C(=O)Nc1ccccc1-c1ncccn1)C(C)C)C1CCCCC1` [Compound 7], the IC50 (C-IAP1 BIR3) is reported as 14.2 µM, the Ki (C-IAP1 BIR3) is reported as 3.12 µM and the IC50 (C-IAP2 BIR3) is reported as 27 µM. For the same molecule, the Ki (C-IAP2 BIR3) was 4.57 µM, the IC50 [1] was over 200 µM and the Ki [1] was over 46 µM. For the same molecule, the IC50 (X-IAP BIR3) was over 200 µM and the Ki (X-IAP BIR3) was over 35 µM.
`CN[C@@H](C)C(=O)N[C@H](C(=O)N(C)[C@H](C(=O)Nc1snnc1-c1ccccc1)C(C)(C)SC)C1CCCCC1` [Compound 23] showed an IC50 (C-IAP1 BIR3) of 0.155 µM, a Ki (C-IAP1 BIR3) of 0.024 µM and an IC50 (C-IAP2 BIR3) of 0.276 µM. The Ki (C-IAP2 BIR3) was 0.06 µM, the IC50 [1] was 0.304 µM and the Ki [1] was 0.069 µM. For the same molecule, the IC50 (X-IAP BIR3) was 14 µM and the Ki (X-IAP BIR3) was 2.49 µM.
`CN[C@@H](C)C(=O)N[C@H](C(=O)N[C@H](C(=O)Nc1snnc1-c1ccccc1)C1(C)CCOCC1)C1CCCCC1` [Compound 3] was tested, and the IC50 (C-IAP1 BIR3) was 0.245 µM, the Ki (C-IAP1 BIR3) was 0.038 µM and the IC50 (C-IAP2 BIR3) was 0.272 µM. It also gave a Ki (C-IAP2 BIR3) of 0.059 µM, an IC50 [1] of 0.178 µM and a Ki [1] of 0.041 µM. It also gave an IC50 (X-IAP BIR3) of 11.2 µM and a Ki (X-IAP BIR3) of 1.99 µM.
Molecule `CN[C@@H](C)C(=O)N[C@H](C(=O)N[C@H](C(=O)Nc1snnc1-c1ccccc1)C(C)(C)SCc1ccc(OC)cc1)C1CCCCC1` [Compound 19] has an IC50 (C-IAP1 BIR3) of 0.289 µM, a Ki (C-IAP1 BIR3) of 0.045 µM and an IC50 (C-IAP2 BIR3) of 0.341 µM. The Ki (C-IAP2 BIR3) was 0.074 µM, the IC50 [1] was 0.543 µM and the Ki [1] was 0.124 µM. The IC50 (X-IAP BIR3) was about 100 µM and the Ki (X-IAP BIR3) was 17.8 µM.
With `CN[C@@H](C)C(=O)N[C@H](C(=O)N[C@H](C(=O)NCC(c1ccccc1)c1ccccc1)C(C)(C)SCNC(C)=O)C1CCCCC1` [Compound 18] the IC50 (C-IAP1 BIR3) was 2.55 µM, the Ki (C-IAP1 BIR3) was 0.395 µM and the IC50 (C-IAP2 BIR3) was 4.34 µM. The Ki (C-IAP2 BIR3) was 0.937 µM, the IC50 [1] was 2.48 µM and the Ki [1] was 0.564 µM. The IC50 (X-IAP BIR3) was over 200 µM and the Ki (X-IAP BIR3) was over 35 µM.
With `CN[C@@H](C)C(=O)N[C@H](C(=O)N[C@H](C(=O)Nc1snnc1-c1ccccc1)C(C)(C)C)C1CCCCC1` [Compound 1] the IC50 (C-IAP1 BIR3) was 0.283 µM and 0.165 µM, the Ki (C-IAP1 BIR3) was 0.044 µM and 0.026 µM and the IC50 (C-IAP2 BIR3) was 0.468 µM and 0.225 µM. The Ki (C-IAP2 BIR3) was 0.101 µM and 0.049 µM, the IC50 [1] was 0.189 µM and 0.181 µM and the Ki [1] was 0.043 µM and 0.041 µM. For the same molecule, the IC50 (X-IAP BIR3) was 9.94 µM and 14.8 µM and the Ki (X-IAP BIR3) was 1.77 µM and 2.63 µM.
`CN[C@@H](C)C(=O)N[C@H](C(=O)N[C@H](c1nc(-c2ccc(F)c3ccccc23)cs1)C(C)(C)SCc1ccc(OC)cc1)C1CCCCC1` [Compound 22] showed an IC50 (C-IAP1 BIR3) of 2.29 µM, a Ki (C-IAP1 BIR3) of 0.354 µM and an IC50 (C-IAP2 BIR3) of 2.45 µM. For the same molecule, the Ki (C-IAP2 BIR3) was 0.53 µM, the IC50 [1] was 8.88 µM and the Ki [1] was 2.02 µM. For the same molecule, the IC50 (X-IAP BIR3) was over 200 µM and the Ki (X-IAP BIR3) was over 35 µM.
`CN[C@@H](C)C(=O)N[C@H](C(=O)N[C@H](C(=O)Nc1snnc1-c1ccccc1)C(F)(F)F)C1CCCCC1` [Compound 5] gave an IC50 (C-IAP1 BIR3) of 2.12 µM, a Ki (C-IAP1 BIR3) of 0.328 µM and an IC50 (C-IAP2 BIR3) of 3.48 µM. The Ki (C-IAP2 BIR3) was 0.751 µM, the IC50 [1] was 4.82 µM and the Ki [1] was 1.1 µM. For the same molecule, the IC50 (X-IAP BIR3) was 13.5 µM and the Ki (X-IAP BIR3) was 2.41 µM.
`CN[C@@H](C)C(=O)N[C@H](C(=O)N[C@H](C(=O)NCC(c1ccccc1)c1ccccc1)C(C)(C)SCc1ccc(OC)cc1)C1CCCCC1` [Compound 17] was tested, and the IC50 (C-IAP1 BIR3) was 6.41 µM, the Ki (C-IAP1 BIR3) was 0.993 µM and the IC50 (C-IAP2 BIR3) was 6.53 µM. The Ki (C-IAP2 BIR3) was 1.41 µM, the IC50 [1] was 5.16 µM and the Ki [1] was 1.18 µM. The IC50 (X-IAP BIR3) was over 200 µM and the Ki (X-IAP BIR3) was over 35 µM.
